# Experimental data taken from patent US20090233975A1, “Hair resiliency/body improver and hair cosmetic” (priority 2005, published 2009).
# Tested on: KAP5.1 gene
# Test: KAP5.1 reporter assay (dual luciferase, pGL3-KAP5.1 in IORS cells)
# Type: cell-based, human
# Settings: overnight culture, negative control K-SFM(−) = 100
# Description: A DNA fragment of about 15 kb containing KAP5.1 gene and KAP5.2 gene was amplified by PCR using an NM-F1 primer (SEQ ID NO. 6), in which the recognition sites of restriction endonuclease NotI and MluI were added to the 5′-terminal thereof, and an R2 primer (SEQ ID NO. 7), and using commercially available human genomic DNA (obtained from Promega) as the template (FIG. 1-A).
# The amplified DNA fragment was double-digested with restriction endonucleases MluI and NheI, and a DNA fragment of about 4.9 kb was recovered following separation by agarose gel electrophoresis. This DNA fragment was cloned between the MluI and NheI sites of reporter vector pGL-3basic (obtained from Promega) having a gene that encodes firefly luciferase (FIG. 1-B). Reporter plasmid pGL-3-KAP5.1 containing the 5′ upstream region (SEQ ID NO. 8) of KAP5.1 was then constructed by subcloning [Step 1: subcloning of SacI/NcoI fragment (154 bp, FIG. 2) to pGL-3basic; Step 2: insertion of ScaI fragment (about 4.0 kbp, FIG. 2) into resulting plasmid] (FIG. 2).
# 8×10^5 immortalized outer root sheath (IORS) cells (obtained in accordance with Japanese Unexamined Patent Publication (Kokai) No. 2000-89) were seeded into a 75 cm^2 flask and cultured for 6 days under conditions of 37° C. and 5% CO2. Keratinocyte-SFM medium (Gibco) was used as the medium.
# Day 1: Plasmid DNA Transfection (transient). The cultured IORS cells were dually transformed with the previously constructed reporter plasmid pGL3-KAP5.1 (firefly luciferase) and commercially available internal standard plasmid pRL-TK (renilla luciferase) in accordance with the manual provided with Effectene Transfection Reagent (Qiagen).
# Day 2: The transformed cells were re-seeded into in a 24-well multiwell plate at 10 to 16×10^4 cells per well and cultured overnight under conditions of 37° C. and 5% CO2.
# Day 3: The medium in each well was replaced with a basal medium in which each drug was dissolved followed by culturing overnight under conditions of 37° C. and 5% CO2.
# Day 4: Assay. Luciferase activity was assayed for each well using the Dual-Luciferase Reporter Assay System (Promega) in accordance with the manual provided by the manufacturer. The AutoLumat LB953 (Berthold) was used for the luminometer.
# An assay was carried out under the same conditions with the exception of not containing drug as a negative control [K-SFM(−)]. The effect of increasing gene expression are represented in the form of the rate of increase (ratio based on a value of 100 for the negative control).
Compound,"Rate of Increase (KAP5.1 gene expression, ratio based on a value of 100 for the negative control) (10 ppm drug)","Rate of Increase (KAP5.1 gene expression, ratio based on a value of 100 for the negative control) (100 ppm drug)","Rate of Increase (KAP5.1 gene expression, ratio based on a value of 100 for the negative control) (300 ppm drug)"
Cc1cc(N)no1 [3-amino-5-methylisoxazole],120,140,160
Nc1nccs1 [2-aminothiazole],110,140,
CC(=O)Nc1cc(C)on1 [3-acetamido-5-methylisoxazole],100,110,125
CC(=O)Nc1nccs1 [2-acetamidothiazole],130,180,
CC(=O)Nc1nc(C)cs1 [2-acetamido-4-methylthiazole],110,150,
